Source: US10683559B2, “G-protein coupled receptor (GPCR)-based biosensors and uses thereof” (Georgia Tech Research Corporation, priority 2014, dated 2020)
Values belong to the molecule of their own block, whether it stands above or below them.

Columns and labels:
GPR40 = target: T1, GPR40 (Homo sapiens, UniProt O14842); test: GPR40-based yeast sensor, GFP fluorescence by flow cytometry; assay type: cell-based
T1 construct: expressed in transfected cells; host or cells: S. cerevisiae W303 Δfar1, Δsst2, Δste2 (PPY140) or additionally Δste12 (PPY161), plasmid pESC-His3-PTEF1-GPR40 (pKM469 and derivatives)
Description: (§1) The GPCRs tested were the olfactory receptor OR1G1 (Sanz, G., Schlegel, C., Pernollet, J. C., and Briand, L. (2005) Comparison of odorant specificity of two human olfactory receptors from different phylogenetic classes and evidence for antagonism, Chemical Senses 30, 69-80) and the free fatty acid receptor GPR40 (Itoh, Y., et al. (2003) Free fatty acids regulate insulin secretion from pancreatic beta cells through GPR40, Nature 422, 173-176). First, OR1G1 and GPR40 sensing of even, medium-chain saturated fatty acids (C8-C16) using PFIG1-GFP(m) was tested. A reliable signal after fatty acid addition was not observed (FIGS. 23 and 24). Hypothesizing that the large standard deviation of PFIG1-GFP(m) contributed to the inability to detect medium-chain fatty acids, PFIG1-GFP(s) was tested as the reporter plasmid. Using PFIG1-GFP(s) enabled the OR1G1 based-sensor to detect C8, C10 and C12 fatty acids with 13-, 17-, and 13-fold increases in signal after activation, respectively (FIGS. 8-9). Using PFIG1-GFP(s) also enabled the GPR40 based-sensor to detect C8, C10 and C12 saturated fatty acids, with 14-, 25-, and 16-fold increases in signal after activation, respectively (FIGS. 10-11). It was also explored whether the OR1G1-based sensor signal could be improved by expressing the OR1G1 from a single-copy (s) rather than a multi-copy (m) plasmid.
(§2) To engineer a system in which medium-chain fatty acid sensing would trigger only GFP transcription, Ste12 was replaced in the yeast strain carrying deletions of Ste2, Sst2, and Far1 with one of two synthetic transcription factors (STFs): 1) STF1, which is composed of the Ste12 phosphorylation domain and the Gal4 activation and DNA binding domains (Pi, H. W., Chien, C. T., and Fields, S. (1997) Transcriptional activation upon pheromone stimulation mediated by a small domain of Saccharomyces cerevisiae Ste12p, Mol Cell Biol 17, 6410-6418) and 2) STF2, which is composed of the Ste12 phosphorylation domain, the synthetic B42 activation domain and the bacterial LexA DNA binding domain (Golemis, E. A., and Brent, R. (1992) Fused Protein Domains Inhibit DNA-Binding by Lexa, Mol Cell Biol 12, 3006-3014 and Peralta-Yahya, P., Carter, B. T., Lin, H. N., Tao, H. Y., and Comish, V. W. (2008) High-Throughput Selection for Cellulase Catalysts Using Chemical Complementation, J Am Chem Soc 130, 17446-17452). STF1 can activate transcription of GFP placed under control of a synthetic minimal promoter carrying five Gal4 DNA binding sites (PGal4(5×)). STF2 activates transcription of GFP placed under control of a synthetic minimal promoter carrying four lexA DNA binding sites (PLexA(4×)) (FIGS. 17 and 18).
(§3) For the Ste2/α-factor sensor, strains PPY638, PPY639, PPY640, PPY641 were grown overnight in synthetic complete media with 2% glucose and lacking leucine (SD glu (L^−)). The next day, the cells were used to inoculate a 20 mL of SD glu (L^−) to an OD600=0.06 and incubated for 18 hrs at 30° C. (150 r.p.m.). The cells were centrifuged, re-suspended in 5 mL SD glu (L^−), used to innoculate 5 ml of fresh SD glu (L^−) to OD600=0.6. α-factor (0-100 nM, Zymo Y1001) was added to the medium and incubated for 4 hrs at 30° C. (150 r.p.m.) before reading for cell fluorescence using a flow cytometer. For the OR1G1- and GPR40-based sensors using Ste12/PFIG1-GFP response unit, strains PPY643, PPY644 were grown overnight in SD glu and lacking histidine and leucine (SD glu (HL^−)). The next day, the cells were used to inoculate a 20 mL of SD glu (HL^−) to an OD600=0.06 and incubated for 18 hrs at […] (150 r.p.m.). The cells were centrifuged, re-suspended in 2 ml SD glu (HL^−) to OD600=0.6. C8, C10, C12, C14 and C16 saturated fatty acids (0-800 μM) were added to the medium and incubated for 4 hrs at 30° C. (150 r.p.m.) before reading for cell fluorescence using a flow cytometer. […]

OR1G1 = target: T2, OR1G1 (Homo sapiens, UniProt P47890); test: OR1G1-based yeast sensor, GFP fluorescence by flow cytometry; assay type: cell-based; conditions: for detection by the OR1G1-sensor, acid added independently: 250 μM, each acid alone (FIG. 27); for detection by the OR1G1-sensor in a mixture of fatty acids: mixture of C10, C14 and C16 acids (FIG. 27)
T2 construct: expressed in transfected cells; host or cells: S. cerevisiae W303 Δfar1, Δsst2, Δste2 (PPY140) or additionally Δste12 (PPY161), plasmid pESC-His3-PTEF1-OR1G1 (pKM269 and derivatives)
T2 sequence (P47890 with tags, fused parts or gaps limits assumed): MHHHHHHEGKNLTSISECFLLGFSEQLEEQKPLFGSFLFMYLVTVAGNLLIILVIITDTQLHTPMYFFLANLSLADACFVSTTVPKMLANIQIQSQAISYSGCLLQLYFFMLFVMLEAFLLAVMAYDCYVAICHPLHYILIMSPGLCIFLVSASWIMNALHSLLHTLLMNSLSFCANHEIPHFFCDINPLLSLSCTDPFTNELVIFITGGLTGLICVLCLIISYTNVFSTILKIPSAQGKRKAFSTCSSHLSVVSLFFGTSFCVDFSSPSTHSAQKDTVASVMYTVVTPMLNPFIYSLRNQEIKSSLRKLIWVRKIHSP
Description: as §1, §2, §3

[1] = Ste12/PFIG1-GFP(s), maximum at C8 800 μM, C10 800 μM, C12 250 μM
[2] = W303 Δfar1, Δsst2, Δste2, reporter PFig1-GFP(s), TF Ste12
[3] = Ste12/PFIG1-GFP(s), maximum at C8 800 μM, C10 250 μM, C12 500 μM
[4] = C8, C10, C12 fatty aldehydes and alcohols, C10 methyl- and ethyl-esters, dose response
[5] = 0 or 500 μM decanoic acid, PFig1-GFP(s), compared with no GPCR
[6] = W303 Δfar1, Δsst2, Δste2, Δste12, 500 μM decanoic acid, PFig1-GFP(s)
[7] = W303 Δfar1, Δsst2, Δste2, Δste12, reporter PGal4(5x)-GFP(m), TF STF1
[8] = W303 Δfar1, Δsst2, Δste2, Δste12, reporter PLexA(4x)-GFP(m), TF STF2
[9] = STF1/PGal4(5×)-GFP response unit, 800 μM decanoic acid

T1 sequence (O14842 whole entry): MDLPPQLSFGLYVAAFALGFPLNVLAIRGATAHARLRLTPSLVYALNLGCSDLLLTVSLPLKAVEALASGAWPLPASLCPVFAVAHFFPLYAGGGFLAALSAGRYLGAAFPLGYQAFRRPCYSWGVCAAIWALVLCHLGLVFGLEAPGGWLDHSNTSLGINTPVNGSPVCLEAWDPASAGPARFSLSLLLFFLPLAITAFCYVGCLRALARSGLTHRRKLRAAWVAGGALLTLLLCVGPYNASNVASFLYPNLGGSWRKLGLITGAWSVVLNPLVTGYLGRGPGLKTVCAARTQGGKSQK

Structure (SMILES): CCCCCCCC(=O)O [C8 acid]
increase in signal after activation (GPR40; [1]): 14 fold | Dynamic range (GPR40; [2]): 14 | GFP max (GPR40; [2]): 197 AU | Linear range (GPR40; [2]): 36 to 250 µM | increase in signal after activation (OR1G1; [3]): 13 fold | Dynamic range (OR1G1; [2]): 13 | GFP max (OR1G1; [2]): 239 AU | Linear range (OR1G1; [2]): 19 to 250 µM

increase in signal after activation (specificity) (GPR40; [4]): unable to detect
Structure (SMILES): CCCCCCCC=O [C8 aldehyde]

GFP fluorescence in presence of GPCR (GPR40; [5]): increase in GFP fluorescence | increase in signal after activation (GPR40; STF1/PGal4(5×)-GFP response unit, 500 μM decanoic acid): 28 fold | increase in GFP expression (GPR40; STF2/PLexA(4×) response unit, 500 μM C10 acid (FIG. 22)): 4 fold | increase in signal after activation (GPR40; [1]): 25 fold | Dynamic range (GPR40; [7]): 28 | GFP max (GPR40; [7]): 573 AU | Linear range (GPR40; [7]): 47 to 250 µM | Dynamic range (GPR40; [8]): 4 | GFP max (GPR40; [8]): 501 AU | Linear range (GPR40; [8]): 4 to 100 µM | Dynamic range (GPR40; [2]): 25 | GFP max (GPR40; [2]): 339 AU | Linear range (GPR40; [2]): 36 to 100 µM | flow cytometry histogram of the biosensor strain (GPR40; incubated with compound vs no compound (FIGS. 30A-30E)): shift of the population | GFP fluorescence in presence of GPCR (OR1G1; [5]): increase in GFP fluorescence | detection by the OR1G1-sensor, acid added independently (OR1G1): able to detect | linear range reaching to (OR1G1; STF1/PGal4(5×)-GFP response unit): 500 µM | improvement in signal after activation over the Ste12/PFIG1-GFP(s) response unit (OR1G1; [9]): ~200% | increase in signal after activation (OR1G1; [9]): 30 fold | increase in signal after activation (OR1G1; STF2/PLexA(4×)-GFP response unit, 800 μM decanoic acid): 7 fold | linear range plateaued at (OR1G1; Ste12/PFIG1-GFP(s) response unit): 250 µM | increase in signal after activation (OR1G1; [3]): 17 fold | Dynamic range (OR1G1; [7]): 30 | GFP max (OR1G1; [7]): 1126 AU | Linear range (OR1G1; [7]): 110 to 500 µM | Dynamic range (OR1G1; [8]): 7 | GFP max (OR1G1; [8]): 405 AU | Linear range (OR1G1; [8]): 2 to 100 µM | Dynamic range (OR1G1; [2]): 17 | GFP max (OR1G1; [2]): 308 AU | Linear range (OR1G1; [2]): 34 to 250 µM | detection by the OR1G1-sensor in a mixture of fatty acids (OR1G1): not able to detect | detection by the OR1G1-sensor in a mixture of fatty acids (OR1G1; listed as decanoic acid): inability
Structure (SMILES): CCCCCCCCCC(=O)O [C10 acid, decanoic acid]
GFP fluorescence in the absence of Ste12 (GPR40; [6]): no observable increase in GFP fluorescence | GFP fluorescence in the absence of Ste12 (OR1G1; [6]): no observable increase in GFP fluorescence | increase in signal after activation with chromosomal GPA1 compared with Golf and GPA1-Golf (OR1G1; above 250 μM decanoic acid): greatest increase in signal after activation

increase in signal after activation (GPR40; at 125 μM): 3 fold | increase in signal after activation (specificity) (OR1G1; [4]): > 3 fold
Structure (SMILES): CCCCCCCCCC=O [C10 aldehyde]

increase in signal after activation (GPR40; [1]): 16 fold | Dynamic range (GPR40; [2]): 16 | GFP max (GPR40; [2]): 222 AU | Linear range (GPR40; [2]): 2 to 250 µM | increase in signal after activation (OR1G1; [3]): 13 fold | Dynamic range (OR1G1; [2]): 13 | GFP max (OR1G1; [2]): 233 AU | Linear range (OR1G1; [2]): 1 to 250 µM
Structure (SMILES): CCCCCCCCCCCC(=O)O [C12 acid]

increase in signal after activation (GPR40; at 250 μM): 3 fold
Structure (SMILES): CCCCCCCCCCCC=O [C12 aldehyde]

detection by the OR1G1-sensor, acid added independently (OR1G1): able to detect | detection by the OR1G1-sensor in a mixture of fatty acids (OR1G1): not able to detect
Structure (SMILES): CCCCCCCCCCCCCC(=O)O [C14 acid]

detection by the OR1G1-sensor, acid added independently (OR1G1): able to detect | detection by the OR1G1-sensor in a mixture of fatty acids (OR1G1): not able to detect
Structure (SMILES): CCCCCCCCCCCCCCCC(=O)O [C16 acid]
